Results: patent publication US9273046B2, “Fused tricyclic compounds as Raf kinase inhibitors” (BeiGene, LTD., priority 2011, dated 2016)
Like-named read-outs stand apart in the source and are kept apart here.

Assays:
[1] = molecular target: B-Raf (V600E) (Homo sapiens (Human), UniProt P15056, V600E); assay: Raf IC50 assay, time-resolved fluorescence energy transfer (TR-FRET), B-Raf; type: biochemical
Method: The enzyme was incubated with the compounds at room temperature for 60 minutes and the reactions were initiated by the addition of ATP and GST-MEK1. […] Plates were sealed and incubated at room temperature for 2 hours, and then the TR-FRET signals were read on BMG PHERAstar FS instrument. The IC50 for each compound was calculated by non linear regression by Graphpad Prism software.

[2] = molecular target: C-Raf (Y340D/Y341D) (Homo sapiens (Human), UniProt P04049, Y340D/Y341D); assay: Raf IC50 assay, time-resolved fluorescence energy transfer (TR-FRET), C-Raf; type: biochemical; details: 0.5 nM C-Raf, 0.1 mM ATP, GST-tagged MEK1 substrate, 60 min preincubation
Method: The assay was carried out in reactions (10 μL) containing 0.0625 nM B-Raf or 0.5 nM C-Raf, 25 mM Tris pH7.4, 10 mM MgCl2, 0.5 mM EGTA, 0.5 mM […], 5 mM beta-glycerophosphate, 0.01% Triton X-100, 2.5 mM DTT, 0.1% BSA, 0.1 mM ATP, 13.7 nM GST-tagged MEK1 (Full-length protein with K97R mutation, recombinant protein purified from bacterial expression system) and 0-5 μM compounds disclosed herein (final concentration of 1% DMSO). The enzyme was incubated with the compounds at room temperature for 60 minutes and the reactions were initiated by the addition of ATP and GST-MEK1. After incubating at room temperature for 60 minutes, an equal volume of stop buffer containing 25 mM Tris pH7.4, 400 mM KF, 50 mM EDTA, 0.01% BSA, 0.01% Triton X-100, 1 test of Eu3+ Cryptate-conjugated rabbit polyclonal antibody anti-Phospho MEK1/2 (Ser217/221) and 1 test of d2-conjugated mouse monoclonal antibody anti-glutathione S-transferase was added to stop the reactions. Plates were sealed and incubated at room temperature for 2 hours, and then the TR-FRET signals were read on BMG PHERAstar FS instrument. The IC50 for each compound was calculated by non linear regression by Graphpad Prism software.

[3] = 0.0625 nM B-Raf, 0.1 mM ATP, GST-tagged MEK1 substrate, 60 min preincubation, read-out: B-Raf (V600E) IC50

Chain of B-Raf (V600E) (P15056 whole entry V600E): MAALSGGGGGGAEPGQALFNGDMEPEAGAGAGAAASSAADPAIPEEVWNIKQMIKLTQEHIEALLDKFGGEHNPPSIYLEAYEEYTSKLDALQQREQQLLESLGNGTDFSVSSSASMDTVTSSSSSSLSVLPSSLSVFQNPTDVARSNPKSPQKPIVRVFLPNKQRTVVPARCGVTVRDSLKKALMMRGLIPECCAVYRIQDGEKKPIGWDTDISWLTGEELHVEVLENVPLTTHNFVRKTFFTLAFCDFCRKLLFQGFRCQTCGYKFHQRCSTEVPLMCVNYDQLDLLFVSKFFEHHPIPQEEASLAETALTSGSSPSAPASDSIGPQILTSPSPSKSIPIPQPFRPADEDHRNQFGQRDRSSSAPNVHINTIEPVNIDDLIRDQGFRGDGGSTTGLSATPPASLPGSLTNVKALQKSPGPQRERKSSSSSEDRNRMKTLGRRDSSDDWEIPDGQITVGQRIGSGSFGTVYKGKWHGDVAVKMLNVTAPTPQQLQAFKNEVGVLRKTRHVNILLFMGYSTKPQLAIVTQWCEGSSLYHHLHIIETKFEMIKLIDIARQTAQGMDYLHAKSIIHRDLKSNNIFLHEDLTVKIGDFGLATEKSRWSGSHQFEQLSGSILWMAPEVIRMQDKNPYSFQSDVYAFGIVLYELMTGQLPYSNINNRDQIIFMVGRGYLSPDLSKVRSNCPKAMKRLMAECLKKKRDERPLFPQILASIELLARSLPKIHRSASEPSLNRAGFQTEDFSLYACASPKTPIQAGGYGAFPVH
Chain of C-Raf (Y340D/Y341D) (P04049 whole entry Y340D/Y341D): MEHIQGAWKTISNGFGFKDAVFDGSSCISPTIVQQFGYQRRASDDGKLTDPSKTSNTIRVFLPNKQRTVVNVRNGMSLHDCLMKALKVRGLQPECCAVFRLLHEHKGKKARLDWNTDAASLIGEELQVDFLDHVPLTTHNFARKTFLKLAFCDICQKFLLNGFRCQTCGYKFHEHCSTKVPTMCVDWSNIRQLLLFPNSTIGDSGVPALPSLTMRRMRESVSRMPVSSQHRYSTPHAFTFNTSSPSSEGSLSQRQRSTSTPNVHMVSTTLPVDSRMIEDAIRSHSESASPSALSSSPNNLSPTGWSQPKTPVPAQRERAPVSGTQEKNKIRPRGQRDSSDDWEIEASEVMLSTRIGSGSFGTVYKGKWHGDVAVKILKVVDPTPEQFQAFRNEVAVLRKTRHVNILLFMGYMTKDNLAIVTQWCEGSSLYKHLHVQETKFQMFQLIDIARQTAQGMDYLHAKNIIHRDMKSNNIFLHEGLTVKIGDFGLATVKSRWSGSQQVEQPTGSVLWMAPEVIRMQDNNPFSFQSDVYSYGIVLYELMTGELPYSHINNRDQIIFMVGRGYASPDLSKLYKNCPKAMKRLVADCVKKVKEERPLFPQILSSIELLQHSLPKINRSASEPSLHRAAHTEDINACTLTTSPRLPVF

`O=C1CCc2c(Oc3ccc4c(c3)C3C(C4)C3C(=O)O)ccnc2N1` (racemic) [Intermediate I, (±)-exo-3-((7-Oxo-5,6,7,8-tetrahydro-1,8-naphthyridin-4-yl)oxy)-1,1a,6,6a-tetrahydrocyclopropa[a]indene-1-carboxylic acid] gave an IC50 [1] greater than 5000 nM and an IC50 [2] greater than 5000 nM.

Work on `O=C1Nc2nccc(Oc3ccc4c(c3)C3C(O4)C3c3nc4ccc(C(F)(F)F)cc4[nH]3)c2CO1` (racemic) [Compound 3.7, (±)-exo-5-((1-(6-(trifluoromethyl)-1H-benzo[d]imidazol-2-yl)-1a,6b-dihydro-1H-cyclopropa[b]benzofuran-5-yl)oxy)-1H-pyrido[2,3-d][1,3]oxazin-2(4H)-one] yielded an IC50 [1, 3] of 26 nM and an IC50 [2] of 3.2 nM.

`O=C1CCc2c(Oc3ccc4c(c3)[C@H]3[C@@H](O4)[C@@H]3c3nc4ccc(C(F)(F)F)cc4[nH]3)ccnc2N1` [Compound 2.2a] was tested, and the IC50 [1, 3] was 6.7 nM and the IC50 [2] was 1.2 nM.

Compound `O=C1CCc2c(Oc3ccc4c(c3)C3C(O4)C3c3nc4ccc(OC(F)(F)F)cc4[nH]3)ccnc2N1` (stereo not shown) [Compound 2.14] has an IC50 [1, 3] of 28 nM and an IC50 [2] of 9.7 nM.

Compound `N#Cc1ccc2nc(C3C4Oc5ccc(Oc6ccnc7c6CCC(=O)N7)cc5C43)[nH]c2c1` (stereo not shown) [Compound 2.6] has an IC50 [1, 3] of 22 nM and an IC50 [2] of 4.5 nM.

Work on `O=C1CCc2c(Oc3ccc4c(c3)C3C(O4)C3c3nc4cccc(C(F)(F)F)c4[nH]3)ccnc2N1` (stereo not shown) [Compound 2.18] yielded an IC50 [1, 3] of 89 nM and an IC50 [2] of 6.2 nM.

`FC(F)(F)c1ccc2nc(C3C4Oc5ccc(Oc6ccncc6)cc5C43)[nH]c2c1` (racemic) [Compound 3.6, (±)-exo-2-(5-(pyridin-4-yloxy)-1a,6b-dihydro-1H-cyclopropa[b]benzofuran-1-yl)-6-(trifluoromethyl)-1H-benzo[d]imidazole] was tested, and the IC50 [1, 3] was 518 nM and the IC50 [2] was 86 nM.

In the case of `Cc1ccc2nc(C3C4Oc5ccc(Oc6ccnc7c6CCC(=O)N7)cc5C43)[nH]c2c1` (stereo not shown) [Compound 2.8], the IC50 [1, 3] is reported as 3.7 nM and the IC50 [2] is reported as 0.71 nM.
